Source: patent publication US20230116972A1, “CD38 MODULATORS AND METHODS OF USE THEREOF” (Cytokinetics, Inc., priority 2021, published 2023)

Columns and labels:
mouse CD38 = target: T1, mouse CD38 (Mus musculus, UniProt P56528); assay: mouse recombinant CD38 enzyme assay (hydrolysis of NAD+); assay type: biochemical; details: read-out: mCD38 BioChem IC50
T1 sequence (P56528 1-304): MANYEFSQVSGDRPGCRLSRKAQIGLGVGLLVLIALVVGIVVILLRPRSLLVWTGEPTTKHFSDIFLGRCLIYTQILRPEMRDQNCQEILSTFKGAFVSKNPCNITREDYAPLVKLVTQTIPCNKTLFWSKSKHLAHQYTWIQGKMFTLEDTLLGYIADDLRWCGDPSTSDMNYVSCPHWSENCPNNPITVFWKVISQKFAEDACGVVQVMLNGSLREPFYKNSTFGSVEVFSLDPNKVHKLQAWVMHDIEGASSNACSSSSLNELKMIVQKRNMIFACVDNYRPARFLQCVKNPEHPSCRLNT
Procedure, shortened: (§1)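 Recombinant human or mouse CD38 hydrolyzing NAD+ in a cell-free buffered system. Dose-responses were run for 60 min at ambient temperature. Remaining NAD+ was converted to NADH by alcohol dehydrogenase, which drove diaphorase reduction of resazurin to resorufin, read at 540/590 nm.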

human CD38 = target: T2, human CD38 (Homo sapiens, UniProt P28907); assay: human recombinant CD38 enzyme assay (hydrolysis of NAD+); assay type: biochemical; details: human recombinant CD38, 0.4 nM enzyme, 62.5 μM NAD+; read-out: hCD38 BioChem IC50
T2 sequence (P28907 1-300): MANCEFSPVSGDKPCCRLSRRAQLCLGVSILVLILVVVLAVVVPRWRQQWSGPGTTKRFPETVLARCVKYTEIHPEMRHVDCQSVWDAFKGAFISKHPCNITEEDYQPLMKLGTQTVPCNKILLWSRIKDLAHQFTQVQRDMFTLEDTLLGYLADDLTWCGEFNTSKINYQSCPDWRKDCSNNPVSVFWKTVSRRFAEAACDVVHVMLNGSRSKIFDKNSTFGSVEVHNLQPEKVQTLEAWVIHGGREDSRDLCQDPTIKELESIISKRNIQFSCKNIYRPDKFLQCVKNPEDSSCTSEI
Procedure, shortened: as §1

[1] = target: T3, endogenous CD38 in HL60 cells (Homo sapiens, UniProt P28907); assay: cellular CD38 assay in HL60 cells (cellular NAD levels); assay type: cell-based; details: all-trans retinoic acid, 24 hours, read-out: hCD38 HL60 ATRA NAD Cell Diaphorase IC50
T3 construct: endogenous in cells; host or cells: HL60 (leukemic cells, treated with all-trans retinoic acid)
T3 sequence (P28907 1-300): T2 sequence (P28907 1-300)
Procedure, shortened: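 HL60 cells (20000/well) were treated with compound in DMSO for 24 h. Cellular NAD was then measured by an enzymatic cycling mix (alcohol dehydrogenase, diaphorase, 40 uM resazurin, 10 uM FMN, 3% ethanol, Triton X-100, pH 8.4).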

SMILES	IC50 (mouse CD38) [nM]	IC50 (human CD38) [nM]	IC50 [1] [nM]
Cc1cc(C(=O)N[C@H]2CC[C@H](C)CC2)nc(-n2ccnc2)n1 [Compound 119, 2-(1H-imidazol-1-yl)-6-methyl-N-((1r,4r)-4-methylcyclohexyl)pyrimidine-4-carboxamide]	1	10	1580
O=C(Nc1ccc(F)c(F)c1)c1cccc(-n2ccnc2)n1 [Compound 34, N-(3,4-difluorophenyl)-6-(1H-imidazol-1-yl)picolinamide]	6	4	509
COCCO[C@H]1CC[C@H](NC(=O)c2cccc(-n3ccnc3)n2)CC1 [Compound 14, 6-(1H-imidazol-1-yl)-N-(4-(2-methoxyethoxy)cyclohexyl)picolinamide]	17	91	3290
O=C(Nc1ccc(C(F)F)nc1)c1cc(C(F)(F)F)nc(-c2cncs2)n1 [Compound 116, N-(6-(difluoromethyl)pyridin-3-yl)-2-(thiazol-5-yl)-6-(trifluoromethyl)pyrimidine-4-carboxamide]	185	507	8160
O=C(Nc1ccc(C(F)F)nc1)c1nccc(-n2ccnc2)n1 [Compound 144, N-(6-(difluoromethyl)pyridin-3-yl)-4-(1H-imidazol-1-yl)pyrimidine-2-carboxamide]	14	3	129
Cn1cncc1-c1nccc(C(=O)NC2CC3(C2)CC(F)(F)C3)n1 [Compound 82, N-(6,6-difluorospiro[3.3]heptan-2-yl)-2-(1-methyl-1H-imidazol-5-yl)pyrimidine-4-carboxamide]	3	10	1080
C[C@H]1CC[C@H](NC(=O)c2cc(C(F)(F)F)nc(-n3ccnc3)n2)CC1 [Compound 164, 2-(1H-imidazol-1-yl)-N-((1r,4r)-4-methylcyclohexyl)-6-(trifluoromethyl)pyrimidine-4-carboxamide]	11	44	4000
CO[C@H]1CC[C@H](NC(=O)c2ccnc(-c3cncn3C)n2)CC1 [Compound 84, N-((1r,4r)-4-methoxycyclohexyl)-2-(1-methyl-1H-imidazol-5-yl)pyrimidine-4-carboxamide]	2	12	1110
Cc1cc(C(=O)Nc2ccc(C(F)F)nc2)nc(-c2cncs2)c1 [Compound 132, N-(6-(difluoromethyl)pyridin-3-yl)-4-methyl-6-(thiazol-5-yl)picolinamide]	55	115	5560
Cc1ccc(-n2ccnc2)nc1C(=O)Nc1cccnc1 [Compound 26, 6-(1H-imidazol-1-yl)-3-methyl-N-(pyridin-3-yl)picolinamide]	7	16	629
CO[C@H]1C[C@H](NC(=O)c2cccc(-n3ccnc3)n2)C1 [Compound 23, 6-(1H-imidazol-1-yl)-N-(3-methoxycyclobutyl)picolinamide]	110	614	3890
O=C(Nc1ccc(C(F)F)nc1)c1cccc(-n2ccnc2)n1 [Compound 95, N-(6-(difluoromethyl)pyridin-3-yl)-6-(1H-imidazol-1-yl)picolinamide]	6	4	280
Cn1cncc1-c1nccc(C(=O)Nc2ccc(C(F)(F)F)nc2)n1 [Compound 69, 2-(1-methyl-1H-imidazol-5-yl)-N-(6-(trifluoromethyl)pyridin-3-yl)pyrimidine-4-carboxamide]	2	3	481
Cn1cncc1-c1cncc(C(=O)NC2CC3(C2)CC(F)(F)C3)n1 [Compound 105, N-(6,6-difluorospiro[3.3]heptan-2-yl)-6-(1-methyl-1H-imidazol-5-yl)pyrazine-2-carboxamide]	24	80	1670

Next, values leading:

IC50 (mouse CD38) [nM]	IC50 (human CD38) [nM]	IC50 [1] [nM]	SMILES
52.9	323	9860	Cn1cncc1-c1ccnc(C(=O)N[C@H]2C[C@@H](c3ccccc3)C2)n1 [Compound 214, 4-(1-methyl-1H-imidazol-5-yl)-N-((1s,3s)-3-phenylcyclobutyl)pyrimidine-2-carboxamide]
1.1	2.8	229	Cc1cc(-c2cncn2C)nc(C(=O)Nc2ccc(C(F)F)nc2)n1 [Compound 202, N-(6-(Difluoromethyl)pyridin-3-yl)-4-methyl-6-(1-methyl-1H-imidazol-5-yl)pyrimidine-2-carboxamide]
13.4	18.5	1920	CO[C@H]1CC[C@H](NC(=O)c2nc(-c3cncn3C)cnc2N)CC1 [Compound 318, 3-amino-N-((1r,4r)-4-methoxycyclohexyl)-6-(1-methyl-1H-imidazol-5-yl)pyrazine-2-carboxamide]
9	72.2	10200	COCCO[C@H]1CC[C@H](NC(=O)c2nc(OC)cc(-c3cncn3C)n2)CC1 [Compound 231, 4-methoxy-N-((1r,4r)-4-(2-methoxyethoxy)cyclohexyl)-6-(1-methyl-1H-imidazol-5-yl)pyrimidine-2-carboxamide]
43.4	124	4520	O=C(N[C@H]1CC[C@H](O)CC1)c1nccc(-n2ccnc2)n1 [Compound 257, N-((1r,4r)-4-hydroxycyclohexyl)-4-(1H-imidazol-1-yl)pyrimidine-2-carboxamide]
61.8	82.9	8770	Cn1cncc1-c1ccnc(C(=O)N[C@H]2CCN(c3ccccc3)C2)n1 [Compound 246, (S)-4-(1-methyl-1H-imidazol-5-yl)-N-(1-phenylpyrrolidin-3-yl)pyrimidine-2-carboxamide]
14.4	16.7	2050	Cn1cncc1-c1ccnc(C(=O)N[C@H]2C[C@H](c3cccc(F)c3)C2)n1 [Compound 241, N-((1r,3r)-3-(3-fluorophenyl)cyclobutyl)-4-(1-methyl-1H-imidazol-5-yl)pyrimidine-2-carboxamide]
10.2	26.5	2790	Cn1cncc1-c1ccnc(C(=O)N[C@H]2CC[C@H](OCc3ccccc3)CC2)n1 [Compound 312, N-((1r,4r)-4-(benzyloxy)cyclohexyl)-4-(1-methyl-1H-imidazol-5-yl)pyrimidine-2-carboxamide]
1.3	2.6	317	COc1cc(-c2cncn2C)nc(C(=O)Nc2ccc(C(F)F)nc2)n1 [Compound 201, N-(6-(difluoromethyl)pyridin-3-yl)-4-methoxy-6-(1-methyl-1H-imidazol-5-yl)pyrimidine-2-carboxamide]
3.2	10.7	1500	Cn1cncc1-c1nc(C(=O)N[C@@H]2C[C@@H]3[C@H](C2)C3(F)F)cc(C2CCOCC2)n1 [Compound 280, N-((1R,3s,5S)-6,6-difluorobicyclo[3.1.0]hexan-3-yl)-2-(1-methyl-1H-imidazol-5-yl)-6-(tetrahydro-2H-pyran-4-yl)pyrimidine-4-carboxamide]
29.5	33.8	2200	O=C(N[C@H]1C[C@H](c2cccc(F)c2)C1)c1nccc(-n2ccnc2)n1 [Compound 237, N-((1r,3r)-3-(3-fluorophenyl)cyclobutyl)-4-(1H-imidazol-1-yl)pyrimidine-2-carboxamide]
32	47	4860	CC(C)c1cc(C(=O)Nc2ccc(C(F)(F)F)nc2)nc(-n2ccnc2)n1 [Compound 170, 2-(1H-imidazol-1-yl)-6-isopropyl-N-(6-(trifluoromethyl)pyridin-3-yl)pyrimidine-4-carboxamide]
1	1.5	254	COCCOc1cc(C(=O)Nc2ccc(C(F)F)nc2)nc(-c2cncn2C)n1 [Compound 307, N-(6-(difluoromethyl)pyridin-3-yl)-6-(2-methoxyethoxy)-2-(1-methyl-1H-imidazol-5-yl)pyrimidine-4-carboxamide]
2.5	11.2	4000	Cn1cncc1-c1nc(C(=O)N[C@H]2CCc3cc(F)ccc32)cc(C2CCOCC2)n1 [Compound 229, (S)-N-(5-fluoro-2,3-dihydro-1H-inden-1-yl)-2-(1-methyl-1H-imidazol-5-yl)-6-(tetrahydro-2H-pyran-4-yl)pyrimidine-4-carboxamide]
